The source of these data is patent US12583851B2, “Heteroaryl-substituted pyrazine derivatives as pesticides” (Elanco Animal Health GmbH, priority 2019, dated 2026).

Format in all cases: in vivo
The test system of assay [1] is adult cat fleas (Ctenocephalides felis). As to the kind of experiment: Ctenocephalides felis in-vitro contact test, adult cat flea. The note with it: 5 μg/cm^2 (=500 g/ha), after 48 hours, read-out: efficacy (fleas dead or moribund). In outline: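 Acetone solution coated onto glass tube walls; 900 ppm gives 5 μg/cm². Once dry, 5–10 adult fleas per tube held at room temperature for 48 h. Efficacy (%) is the share of fleas dead or moribund, i.e. unable to climb away on a 45–50° C heating plate.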

For assay [2], the system named is adult flies Musca domestica strain WHO-N. As to the kind of experiment: Musca domestica test (MUSCDO surface treatment & contact assay). The note with it: 24 hours after contact, read-out: mortality (efficacy); for mortality at 20 mg/m2: surface concentration 20 mg/m^2, 30 minutes exposure. As to the method:
Musca domestica Test (MUSCDO Surface Treatment & Contact Assay)
Solvent: Aceton+2000 ppm rapeseed oil methyl ester (RME)
In order to produce a sufficient, active ingredient containing solution it is necessary to solve the test compound in the solvent-mix (acetone at 2 mg/ml/RME 2000 ppm). This solution is pipetted onto a glazed tile and after evaporation of the acetone, adult flies of the species Musca domestica strain WHO-N are placed onto the dried surface. The exposure time is 30 minutes.
Mortality in percent (%) is determined 24 hours after contact of the insects to the treated surface. 100% mortality means that all tested insects are dead, whereas 0% means that no insect died.

The test system of assay [3] is adult brown dog ticks (Rhipicephalus sanguineus). As to the kind of experiment: Rhipicephalus sanguineus in-vitro contact test, adult brown dog ticks. The note with it: 48 h, 5 μg/cm^2 (=500 g/ha), after 48 hours, read-out: efficacy (ticks dead or moribund). A digest of the protocol: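 Acetone solution coated on glass tube inner walls (900 ppm, giving 5 μg/cm^2); after drying, 5–10 adult ticks added and kept 48 h at room temperature. Efficacy scored as percent dead or moribund, i.e., ticks unable to climb away on a 45–50 °C heating plate within 5 min.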

The subject of assay [4] is larvae of the banded cucumber beetle (Diabrotica balteata). As to the kind of experiment: Diabrotica balteata spray test. The conditions noted are these: 168 h, after 7 days, read-out: efficacy (seedling growth); for pest or weed control at 6.4 µg/disc, 20 g/ha: 20 g/ha (=6.4 μg/well). In outline:
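Germinated wheat seedlings (5 per well, on agar) sprayed with compound in acetone/DMF with emulsifier-containing water, then infested with 10–20 Diabrotica balteata larvae. Efficacy (%) scored after 7 days from seedling growth: 100% = growth as untreated uninfested control, 0% = no seedlings grown.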

Assay [5] relates to brown planthopper (Nilaparvata lugens). As to the kind of experiment: Nilaparvata lugens spray test. The note with it: 96 h, 100 g/ha, rice plants, after 4 days. As to the method:
Nilaparvata lugens—Spray Test
Solvent: 78.0 parts by weight of acetone • • 1.5 parts by weight of dimethylformamide
Emulsifier: alkylarylpolyglycol ether
To produce a suitable preparation of active compound, 1 part by weight of active compound is mixed with the stated amount of solvents and is diluted with water, containing an emulsifier concentration of 1000 ppm, to the desired concentration. Further test concentrations are prepared by dilution with emulsifier containing water.
Rice plants (Oryza sativa) are sprayed with a preparation of the active ingredient of the desired concentration and the plants are infested with the brown planthopper (Nilaparvata lugens).
After 4 days mortality in % is determined. 100% means all planthoppers have been killed and 0% means none of the planthoppers have been killed.

The term mortality denotes the percentage killed. Consider `CC(NC(=O)c1cc(Cl)cc(C(F)(F)F)c1)c1nccnc1-c1ncccn1` (racemic) [Example I-10, (rac)-3-Chloro-N-(1-(3-(pyrimidin-2-yl)pyrazin-2-yl)ethyl)-5-(trifluoromethyl)benzamide], for which the pest or weed control at 5 µg/cm2, 500 g/ha in assay [1] and in assay [3] was 80% in each case. Further, the mortality at 20 mg/m2 in assay [2] was in the range of 80 to 100%. Further, the pest or weed control at 6.4 µg/disc, 20 g/ha in assay [4] is 100%. In assay [4] (100 g/ha (=32 μg/well)), the pest or weed control at 32 µg/disc, 100 g/ha stood at 100%.
In assay [5], `CC(NC(=O)c1cc(C(F)(F)F)cc(C(F)(F)F)c1)c1nccnc1-c1ncccn1` (racemic) [Example I-8, (rac)-N-(1-(3-(Pyrimidin-2-yl)pyrazin-2-yl)ethyl)-3,5-bis(trifluoromethyl)benzamide] had a mortality at 100 g/ha of 100%. In addition, the mortality at 4 mg/m2 in assay [2] (surface concentration 4 mg/m^2, 30 minutes exposure) was 80 to 100%. In assay [2], the mortality at 20 mg/m2 was in the range of 80 to 100%. Further, in assay [4], the pest or weed control at 6.4 µg/disc, 20 g/ha was 100%.
